PubChem BioAssay AID1963829 (Molecular Pharmacology Branch, DTP, NCI, 2024)
“And” between values parts separate entries of the source, which are not always exact repeats. Equal entries are not always repeated.

System: 935938-334-R-J1-PDC complex spheroid viability
Assay: Anticancer human tumor 935938-334-R-J1-PDC patient-derived small intestine adenocarcinoma cell line growth inhibition [POLQ]
Details: for viability, T/C: stronger effect = lower value
Method: Multicellular complex tumor spheroid response to Polymerase (POL) inhibitors (novobiocin, ART-558, RP6685) in combination with a variety of drugs and investigational agents in selected tumor cell lines
The POL inhibitors (novobiocin, ART-558, and RP6685) were evaluated both individually and in combination with standard of care and investigational anticancer small molecules within a complex spheroid model of solid tumors. . Complex spheroids include a stromal component modeled by human endothelial cells (HUVEC) and fibroblasts modeled by human mesenchymal stem cells (MSCs). The concentration ranges selected for each drug and investigational agent were based upon clinically achievable concentrations if the clinical Cmax of the agent was known.
Compounds. The drugs and investigational agents: novobiocin (NSC847541), ART-558 (NSC835418), RP-6685 (NSC848927), peposertib (NSC802822), ceralasertib (NSC780249), elimusertib (NSC800525), camonsertib (NSC841442), AZD-1390 (NSC803789), olaparib (NSC753686), talazoparib (NSC767125), rucaparib (NSC756644), sotorasib (NSC818433), MRTX-1133 (NSC836407), SN-38 (NSC673596), topotecan (NSC609699), epotoside (NSC141540), doxorubicin (NSC123127), gemcitabine (NSC613327), 5-fluorouracil (NSC19893), paclitaxel (NSC125973), vemurafenib (NSC761431), MSA-2 (NSC828583), SN-011 (NSC837082), adavosertib (NSC754352), prexasertib (NSC758257), carboplatin (NSC241240) and oxaliplatin (NSC266046), were obtained from the National Cancer Institute (NCI) Developmental Therapeutics Program Chemical Repository (21). The FDA-approved anticancer drug set is available from the Developmental Therapeutics Program at https://dtp.cancer.gov/organization/dscb/obtaining/. […] The stock solutions were prepared in dimethyl sulfoxide (DMSO, Sigma-Aldrich, St. Louis, MO, cat. D2650), except for the platinum compounds which were prepared in saline (Quality Biological, Gaithersburg, MD, cat. 114-055-101), at 800-fold the tested concentration and stored at -70 degrees C prior to their use. All drugs and investigational agents were tested over a range starting from a high concentration at or near the clinical Cmax and decreasing in half-log increments. If the clinical Cmax for an agent had not been determined, the highest concentration tested was 10 microM, except for SN-38, which was tested at a high concentration of 1 microM.
Cell Culture. All cells were maintained in an incubator at 37 degrees C and 5% CO2 with 95% humidity. The PDC lines were cultured according to standard operating procedures established by the NCI PDMR (https://pdmr.cancer.gov). Table 3 of the manuscript, lists the cell lines along with the number of the three cell types plated to form the mct-spheroids and media for tumor cell growth. After thawing, all PDC lines, except 997537-175-T-J1-PDC and 415267-285-R-J2-PDC, were cultured in Matrigel-coated flasks prepared with a working solution of 1X Ham's F-12 nutrient mix, without supplementation (Thermo Fisher Scientific, cat. 11765054), 100 U/mL penicillin-streptomycin (Thermo Fisher Scientific, cat. 15140122), and 2.5% Matrigel (Corning Inc., Corning, NY, cat. 354248) for the first three passages. The two PDC lines 997537-175-T-J1-PDC and 415267-285-R-J2-PDC were cultured on uncoated flasks. The 857933-349-R-J2-PDC line was cultured in 6C/Colon 1B media containing advanced DMEM/F-12 (Thermo Fisher Scientific, cat. 12634028), 10 mM HEPES (Thermo Fisher Scientific, cat. 15630080), 1X GlutaMAX supplement (Thermo Fisher Scientific, cat. 35050061), 0.1 mg/mL primocin (InvivoGen, San Diego, CA, cat. ant-pm-2), 10% defined fetal bovine serum, heat inactivated (HyClone Laboratories Inc., Logan, UT, cat. SH30070.03HI), 50% L-WRN conditioned media (ATCC, cat. CRL-3276), 1.25 mM N-Acetyl-L-cysteine (Sigma-Aldrich, cat. A9165), 10 mM nicotinamide (Sigma-Aldrich, cat. N0636), 1X B-27 supplement (Thermo Fisher Scientific, cat. 17504044), 1X N-2 supplement (Thermo Fisher Scientific, cat. […]
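Also: spheroids exposed to drugs for seven days before viability read.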
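For viability, T/C in this document: 100% = DMSO vehicle control wells.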

## CC[C@@]1(O)C(=O)OCc2c1cc1n(c2=O)Cc2cc3c(CN(C)C)c(O)ccc3nc2-1 + Nc1ccc(C#CCN(C(=O)Cc2ncc(C(F)(F)F)cc2C(F)(F)F)c2ccc(F)cc2)nn1
Curve of first compound, second compound 0.0316 µM
  IC50: > 100 nM
Curve of first compound, second compound 0.1 µM
  IC50: > 100 nM
Curve of first compound, second compound 0.316 µM
  IC50: > 100 nM
Curve of first compound, second compound 1 µM
  IC50: > 100 nM
Curve of first compound, second compound 3.16 µM
  IC50: > 100 nM
Curve of first compound, second compound 10 µM
  IC50: > 100 nM
Second compound 0.0316 µM, first compound 0.000316 µM
  viability, T/C: 73.9%
Second compound 0.0316 µM, first compound 0.001 µM
  viability, T/C: 96.8%
Second compound 0.0316 µM, first compound 0.00316 µM
  viability, T/C: 97.6%
Second compound 0.0316 µM, first compound 0.01 µM
  viability, T/C: 91.9%
Second compound 0.0316 µM, first compound 0.0316 µM
  viability, T/C: 84.3%
Second compound 0.0316 µM, first compound 0.1 µM
  viability, T/C: 60.2%
Second compound 0.1 µM, first compound 0.000316 µM
  viability, T/C: 98.6%
Second compound 0.1 µM, first compound 0.001 µM
  viability, T/C: 101%
Second compound 0.1 µM, first compound 0.00316 µM
  viability, T/C: 113%
Second compound 0.1 µM, first compound 0.01 µM
  viability, T/C: 98.1%
Second compound 0.1 µM, first compound 0.0316 µM
  viability, T/C: 96.7%
Second compound 0.1 µM, first compound 0.1 µM
  viability, T/C: 63%
Second compound 0.316 µM, first compound 0.000316 µM
  viability, T/C: 129%
Second compound 0.316 µM, first compound 0.001 µM
  viability, T/C: 130%
Second compound 0.316 µM, first compound 0.00316 µM
  viability, T/C: 99.2%
Second compound 0.316 µM, first compound 0.01 µM
  viability, T/C: 82.6%
Second compound 0.316 µM, first compound 0.0316 µM
  viability, T/C: 87.4%
Second compound 0.316 µM, first compound 0.1 µM
  viability, T/C: 57%
Second compound 1 µM, first compound 0.000316 µM
  viability, T/C: 132%
Second compound 1 µM, first compound 0.001 µM
  viability, T/C: 117%
Second compound 1 µM, first compound 0.00316 µM
  viability, T/C: 77.8%
Second compound 1 µM, first compound 0.01 µM
  viability, T/C: 105%
Second compound 1 µM, first compound 0.0316 µM
  viability, T/C: 86.7%
Second compound 1 µM, first compound 0.1 µM
  viability, T/C: 48%
Second compound 3.16 µM, first compound 0.000316 µM
  viability, T/C: 110%
Second compound 3.16 µM, first compound 0.001 µM
  viability, T/C: 110%
Second compound 3.16 µM, first compound 0.00316 µM
  viability, T/C: 96.9%
Second compound 3.16 µM, first compound 0.01 µM
  viability, T/C: 116%
Second compound 3.16 µM, first compound 0.0316 µM
  viability, T/C: 84%
Second compound 3.16 µM, first compound 0.1 µM
  viability, T/C: 65.1%
Second compound 10 µM, first compound 0.000316 µM
  viability, T/C: 163%
Second compound 10 µM, first compound 0.001 µM
  viability, T/C: 117%
Second compound 10 µM, first compound 0.00316 µM
  viability, T/C: 111%
Second compound 10 µM, first compound 0.01 µM
  viability, T/C: 72.7%
Second compound 10 µM, first compound 0.0316 µM
  viability, T/C: 103%
Second compound 10 µM, first compound 0.1 µM
  viability, T/C: 48.6%

## CC1COCCN1c1cc(-c2ccnn2C)c2ccnc(-c3ccn[nH]3)c2n1 (stereo not given)
Compound 0.0316 µM
  viability, T/C: 82.6% and 80.7% and 109%
Compound 0.1 µM
  viability, T/C: 48.1% and 37.2% and 43.2%
Compound 0.316 µM
  viability, T/C: 23.7% and 26.6% and 25.3%
Compound 1 µM
  viability, T/C: 19.7% and 18.6% and 15.1%
Compound 3.16 µM
  viability, T/C: 17.2% and 15.3% and 17.5%
Compound 10 µM
  viability, T/C: 19.2% and 18.9% and 18.3%
Curve of compound
  IC50: 93.9 nM and 73.1 nM and 89.6 nM

## Cn1ncnc1[C@H]1c2n[nH]c(=O)c3cc(F)cc(c23)N[C@@H]1c1ccc(F)cc1
Compound 0.000316 µM
  viability, T/C: 87.9% and 80.8% and 110%
Compound 0.001 µM
  viability, T/C: 83.2% and 90.4% and 112%
Compound 0.00316 µM
  viability, T/C: 82.5% and 83.7% and 85.8%
Compound 0.01 µM
  viability, T/C: 93.8% and 99.9% and 105%
Compound 0.0316 µM
  viability, T/C: 113% and 94.7% and 116%
Compound 0.1 µM
  viability, T/C: 99.4% and 96.1% and 76.1%
Curve of compound
  IC50: > 100 nM

## Cc1cccc(N(C)C(=O)C2C(O)CCN2c2nc(C)cc(C(F)(F)F)c2C#N)c1 (stereo not given)
Compound alone, run of 11/27/2023
  IC50: > 10000 nM
Compound alone, run of 12/05/2023
  IC50: > 10000 nM

## O=C(Nc1ccc(O)c(NS(=O)(=O)c2ccc(F)cc2)c1)c1ccc(-c2ccccc2)cc1
Compound 0.0316 µM
  viability, T/C: 105% and 85.8% and 92.8%
Compound 0.1 µM
  viability, T/C: 90.5% and 105% and 85.8%
Compound 0.316 µM
  viability, T/C: 76.6% and 90.5% and 111%
Compound 1 µM
  viability, T/C: 80.5% and 76.2% and 111%
Compound 3.16 µM
  viability, T/C: 103% and 84.1% and 91.1%
Compound 10 µM
  viability, T/C: 93.4% and 63.7% and 69.9%
Curve of compound
  IC50: > 10000 nM
